# Several values for one entry are separate records, joined by “and”; a condition that tells them apart may be missing. Identical values can stand only once. Entries after “also recorded” stand apart in the source; their conditions may differ.
# Experiments:
# [1] = system: MMP1 chromosome conformations; test: MMP-1 3C quantification in HL-60 (acute myeloid leukaemia) cells treated with GSK864; type: cell-based
# Method: (§1) MMP-1 3C quantification with no-fixation controls and a formaldehyde treated samples. The exemplary cell lines used in this application are: • (a) DBTRG-05MG (glioblastoma). • (b) HL-60 (acute myeloid leukaemia).
# The HL60 cell lines have been treated with the IDH1 inhibitor GSK864 over 24 hrs and 48 hrs.
# [2] = system: MMP1 chromosome conformations; test: MMP-1 3C quantification in DBTRG-05MG (glioblastoma) cells treated with GSK864; type: cell-based
# Method: as §1
# These cell lines have been treated with the IDH1 inhibitor GSK864 over 24 hrs and 48 hrs.
# MMP1 3C interaction = MMP1 3C interaction hydrolysis probe qPCR in BT142 cell line; conditions: BT142 cells, imatinib 1 μM
# [3] = system: cKIT 3C interaction ORF3_4_54711719_54715167_54736749_54740853_FR; test: cKIT 3C interaction PCR on imatinib treated BT142 cells; type: cell-based; conditions: 1 μm imatinib, 20 ng of template per well
# Method: Example of novel data regarding the action of imatinib in the following imatinib responsive selected gene is described below. 20 ng of template was added to each well for samples treated with imatinib.
# cKIT and exemplary data. The BT142 cells have been treated with 1 μm of imatinib. 20 ng of template was loaded into each well.
# The product in well Cl has been confirmed as the cKIT interaction named above (ORF3_4_54711719_54715167_54736749_54740853_FR).
SMILES,"Effect on MMP1 chromosome conformations (3C MMP1 copy number), in words ([1]; HL60 cell line, GSK864 1 μm, over 24 hrs and 48 hrs)","Cq ([1]; HL-60 cells, 48 hr GSK864)","Effect on MMP1 chromosome conformations (3C MMP1 copy number), in words ([2]; DBTRG cell line, GSK864 1 μm, over 24 hrs and 48 hrs)","Copy number in 20 ng ([2]; DBTRG cells, 24 hr, GSK 1 um, MMP1 3C)",MMP1 copy number (MMP1 3C interaction; 20 ng of template per well),Cq (MMP1 3C interaction; MMP1 3C interaction),cKIT 3C interaction in imatinib treated cells [3]
COc1c(C)cc(NC(=O)c2nn(Cc3ccc(F)cc3)c3c2CN(C(=O)c2ccc[nH]2)C[C@]3(C)C(N)=O)cc1C [GSK864],quantitative differences; also recorded: binary quantitative difference; also recorded: direct action on 3C MMP1 copy number,40.33 and 37.5 and 37.11,binary difference; also recorded: direct action on 3C MMP1 copy number,NaN (NaN = 0 copies),,,
Cc1ccc(NC(=O)c2ccc(CN3CCN(C)CC3)cc2)cc1Nc1nccc(-c2cccnc2)n1 [Imatinib],,,,,37.22 and 26.43 and 31.45,35.64 and 36.15 and 35.89,completely absent

# Reference: US11560597B2, “Application of epigenetic chromosomal interactions in cancer diagnostics” (Oxford BioDynamics, PLC, priority 2016, dated 2023)
